{"source": "PubChem BioAssay AID248", "about": "(DTP/NCI, 2004)", "system": "L1210 leukemia ip in BDF1 mice, survival T/C", "assay": "NCI In Vivo Anticancer Drug Screen. Data for tumor model L1210 Leukemia (intraperitoneal) in B6D2F1 (BDF1) mice", "details": "endpoint: mean survival time, higher = longer survival", "how_it_was_run": "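Read-out is survival time, reported as the treated-group measurement over the vehicle-control measurement.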", "note": "Several values for one entry are separate records, joined by “and”; a condition that tells them apart may be missing. Equal values may be shown once. Toxic doses and inconclusive results are not listed.", "data": [{"smiles": "COC12C(COC(N)=O)C3=C(C(=O)C(C)=C(N)C3=O)N1CC1C2N1C", "note": "(stereo not given)", "values": [{"measurement": "T/C", "setting": "dose: 0.37 mg/kg/injection, schedule: Q01DX009 (ip), vehicle: saline", "value": "106 % of control"}, {"measurement": "T/C", "setting": "dose: 0.7 mg/kg/injection, schedule: Q## X040 (ip), vehicle: saline", "value": "106 % of control"}, {"measurement": "T/C", "setting": "dose: 0.75 mg/kg/injection, schedule: Q01DX009 (ip), vehicle: saline", "value": "117 % of control"}, {"measurement": "T/C", "setting": "dose: 1.25 mg/kg/injection, schedule: Q01DX Z (ip), vehicle: carboxymethylcellulose (CMC)", "value": "93 % of control"}, {"measurement": "T/C", "setting": "dose: 1.4 mg/kg/injection, schedule: Q## X040 (ip), vehicle: saline", "value": "118 % of control"}, {"measurement": "T/C", "setting": "dose: 1.5 mg/kg/injection, schedule: Q01DX009 (ip), vehicle: saline", "value": "121 % of control"}, {"measurement": "T/C", "setting": "dose: 1.5 mg/kg/injection, schedule: Q## X003 (ip), vehicle: saline", "value": "117 % of control"}, {"measurement": "T/C", "setting": "dose: 2.0 mg/kg/injection, schedule: Q01DX009 (ip), vehicle: Klucel (hydroxypropylcellulose) (HPC)", "value": "120 % of control"}, {"measurement": "T/C", "setting": "dose: 2.0 mg/kg/injection, schedule: Q01DX009 (ip), vehicle: saline", "value": "165 % of control"}, {"measurement": "T/C", "setting": "dose: 2.0 mg/kg/injection, schedule: Q01DX009 (sc), vehicle: saline", "value": "109 % of control"}, {"measurement": "T/C", "setting": "dose: 2.0 mg/kg/injection, schedule: Q01DX015 (ip), vehicle: saline", "value": "115 % of control and 116 % of control and 121 % of control"}, {"measurement": "T/C", "setting": "dose: 2.2 mg/kg/injection, schedule: Q01DX007 (ip), vehicle: carboxymethylcellulose (CMC)", "value": "123 % of control"}, {"measurement": "T/C", "setting": "dose: 2.5 mg/kg/injection, schedule: Q01DX Z (ip), vehicle: carboxymethylcellulose (CMC)", "value": "97 % of control"}, {"measurement": "T/C", "setting": "dose: 3.0 mg/kg/injection, schedule: Q01DX001 (ip), vehicle: saline", "value": "116 % of control"}, {"measurement": "T/C", "setting": "dose: 3.0 mg/kg/injection, schedule: Q## X003 (ip), vehicle: saline", "value": "112 % of control"}, {"measurement": "T/C", "setting": "dose: 3.0 mg/kg/injection, schedule: Q## X008 (ip), vehicle: saline", "value": "116 % of control"}, {"measurement": "T/C", "setting": "dose: 3.0 mg/kg/injection, schedule: Q## X040 (ip), vehicle: saline", "value": "119 % of control"}, {"measurement": "T/C", "setting": "dose: 3.35 mg/kg/injection, schedule: Q01DX015 (ip), vehicle: carboxymethylcellulose (CMC)", "value": "121 % of control"}, {"measurement": "T/C", "setting": "dose: 3.5 mg/kg/injection, schedule: Q01DX015 (ip), vehicle: saline", "value": "123 % of control"}, {"measurement": "T/C", "setting": "dose: 4.0 mg/kg/injection, schedule: Q## X024 (ip), vehicle: saline", "value": "103 % of control"}, {"measurement": "T/C", "setting": "dose: 4.4 mg/kg/injection, schedule: Q## X004 (ip), vehicle: saline", "value": "114 % of control"}, {"measurement": "T/C", "setting": "dose: 5.0 mg/kg/injection, schedule: Q01DX007 (ip), vehicle: carboxymethylcellulose (CMC)", "value": "156 % of control"}, {"measurement": "T/C", "setting": "dose: 5.0 mg/kg/injection, schedule: Q01DX009 (oral), vehicle: saline", "value": "122 % of control"}, {"measurement": "T/C", "setting": "dose: 5.0 mg/kg/injection, schedule: Q01DX015 (ip), vehicle: saline", "value": "122 % of control"}, {"measurement": "T/C", "setting": "dose: 5.0 mg/kg/injection, schedule: Q01DX Z (ip), vehicle: carboxymethylcellulose (CMC)", "value": "123 % of control"}, {"measurement": "T/C", "setting": "dose: 6.0 mg/kg/injection, schedule: Q01DX009 (ip), vehicle: saline", "value": "151 % of control and 164 % of control"}, {"measurement": "T/C", "setting": "dose: 6.0 mg/kg/injection, schedule: Q01DX015 (ip), vehicle: carboxymethylcellulose (CMC)", "value": "156 % of control"}, {"measurement": "T/C", "setting": "dose: 6.0 mg/kg/injection, schedule: Q## X008 (ip), vehicle: saline", "value": "112 % of control"}, {"measurement": "T/C", "setting": "dose: 6.7 mg/kg/injection, schedule: Q## X004 (ip), vehicle: saline", "value": "121 % of control"}, {"measurement": "T/C", "setting": "dose: 7.5 mg/kg/injection, schedule: Q01DX007 (ip), vehicle: carboxymethylcellulose (CMC)", "value": "158 % of control"}, {"measurement": "T/C", "setting": "dose: 7.5 mg/kg/injection, schedule: Q01DX015 (ip), vehicle: carboxymethylcellulose (CMC)", "value": "163 % of control"}, {"measurement": "T/C", "setting": "dose: 8.0 mg/kg/injection, schedule: Q01DX009 (ip), vehicle: saline", "value": "171 % of control and 176 % of control"}, {"measurement": "T/C", "setting": "dose: 8.0 mg/kg/injection, schedule: Q01DX015 (ip), vehicle: saline", "value": "150 % of control and 153 % of control"}, {"measurement": "T/C", "setting": "dose: 8.0 mg/kg/injection, schedule: Q## X008 (ip), vehicle: saline", "value": "104 % of control"}, {"measurement": "T/C", "setting": "dose: 8.0 mg/kg/injection, schedule: Q## X016 (ip), vehicle: saline", "value": "96 % of control"}, {"measurement": "T/C", "setting": "dose: 8.0 mg/kg/injection, schedule: Q## X024 (ip), vehicle: saline", "value": "111 % of control"}, {"measurement": "T/C", "setting": "dose: 10.0 mg/kg/injection, schedule: Q01DX Z (ip), vehicle: carboxymethylcellulose (CMC)", "value": "151 % of control and 169 % of control"}, {"measurement": "T/C", "setting": "dose: 11.25 mg/kg/injection, schedule: Q01DX007 (ip), vehicle: carboxymethylcellulose (CMC)", "value": "150 % of control"}, {"measurement": "T/C", "setting": "dose: 12.0 mg/kg/injection, schedule: Q01DX009 (ip), vehicle: saline", "value": "153 % of control and 167 % of control"}, {"measurement": "T/C", "setting": "dose: 12.0 mg/kg/injection, schedule: Q02DX008 (ip), vehicle: saline", "value": "154 % of control"}]}]}
